Results taken from PubChem BioAssay AID651649 (Sanford-Burnham Center for Chemical Genomics, 2012).
Activity calls are given as the source filed them.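 How the source made its calls: active means IC50 below 20 µM; inactive means the rest.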

Each compound was assayed against CRF-binding protein / CRF-R2 receptor complex (human) (assay: inhibition of CRF-induced CRF-R2.BP calcium signal – cell-based, 384-well, HEK293, calcium flux, powder samples, SAR follow-up (AID 651649)). Conditions: Fluo4.

| SMILES | IC50 |
| --- | --- |
| Cc1ccccc1Cn1ccc(NC(=O)c2cc3ncc(Br)cn3n2)n1 | > 40 µM (inactive) |
| O=C(COc1cc(Cl)ccc1Cl)N1CCNC1=O | 5.85 µM |
| Cc1ccc(-n2nnnc2SCc2nnc(-c3ccccc3Br)o2)c(C)c1 | 6.04 µM |
| Cc1ccccc1-c1cc2nc(-c3ccc([N+](=O)[O-])cc3)cc(=O)n2[nH]1 | > 40 µM (inactive) |
| Cc1ccc(NC(=O)c2ccccc2NS(=O)(=O)c2ccc(F)cc2)cc1S(=O)(=O)N1CCCCC1 | > 40 µM (inactive) |
| Cc1ccc2cccc(Oc3ncnc4scc(-c5ccccc5)c34)c2n1 | 8.73 µM |
| COc1ccc(C(=O)COC(=O)c2cccnc2SC)cc1 | > 20 µM (inactive) |
| Cn1c(COc2ccccc2)nnc1SCC(=O)c1cccc([N+](=O)[O-])c1 | > 40 µM (inactive) |
| COC(=O)c1ccc(CSc2nc3ccccc3c(=O)n2-c2ccccc2)o1 | 5.03 µM |
| C=CCOc1ccc(/C=C2\SC(=S)N(NS(=O)(=O)c3ccccc3)C2=O)cc1 | 4.81 µM |
| COCCNc1nc2c(S(=O)(=O)c3cc(C)ccc3C)nnn2c2ccccc12 | > 40 µM (inactive) |
| Cc1nc2nc(SCC(=O)c3cccc([N+](=O)[O-])c3)[nH]c2cc1Br | inactive |
| COc1ccc(Oc2ccc(C(F)(F)F)cc2NC(=O)c2ccc(OC)cc2)cc1 | > 40 µM (inactive) |
| O=C(O)c1ccc(COc2ccccc2C=C2C(=O)c3ccccc3C2=O)cc1 | 4.52 µM |
| O=C(COc1ccc2ccccc2c1)Nc1cccc(C(=O)Nc2ccccc2C(=O)O)c1 | 7.54 µM |

The next lines start with the values.

| IC50 | SMILES |
| --- | --- |
| 2.54 µM | CC(C)(C)c1cc(C(=O)NNC(=O)Nc2cccc(Cl)c2)n(Cc2ccccc2)n1 |
| < 0.125 µM | COc1cccc2cc(-c3nnc(-c4ccccc4)o3)c(=O)oc12 |
| 1.04 µM | COc1cccc(NC(=S)NC(Cc2ccccc2)c2ccccc2)c1 (stereo not drawn) |
| 0.632 µM | Brc1ccccc1-c1nnc(CSc2nnnn2-c2ccccc2)o1 |
| 2.76 µM | CC(=O)NC(Cc1ccc(C)cc1)C(=O)NC1CCN(c2ncccc2[N+](=O)[O-])CC1 (stereo not drawn) |
| 1.17 µM | CCOc1ccc(Cl)cc1S(=O)(=O)n1nnc2ccccc21 |
| 0.636 µM | O=c1oc2ccc3ccccc3c2cc1-c1nnc(-c2ccccc2)o1 |
| 2.38 µM | CC1CC(C)CN(C(=O)CSc2nc(Cc3cccs3)nc3ccccc23)C1 (stereo not drawn) |
| 3.22 µM | Cc1ccc(S(=O)(=O)N(CC(=O)Nc2ccccc2C(=O)O)c2ccc(Cl)cc2)cc1 |
| 0.946 µM | CC(C)Cn1c(SCC(=O)N2CCc3ccccc3C2)nc2cc(Cl)ccc2c1=O |
| 1.54 µM | COc1cccc(C2CC(c3cccs3)=NN2C(=O)c2ccco2)c1O (stereo not drawn) |
| 0.214 µM | COc1ccc([N+](=O)[O-])cc1NC(=O)c1ccccc1SC |
| 1.35 µM | NC(=O)c1ccc(NCc2ccco2)c([N+](=O)[O-])c1 |
